From patent US5506213A, “Adminstration of 2'-halo-2'-deoxy adenosine to treat inflammatory bowel disease” (priority 1994, dated 1996)

How the values were obtained:
[1] = system: human fibroblast cell line GM01380; test: In vitro cytotoxicity toward human fibroblast cell line (MTT reduction assay); format: cell-based; settings: 20 nM CdA, five days
Method: FIG. 2 is a graph illustrating the dose-response cytotoxicity of 2-chlorodeoxyadenosine (CdA) towards normal human monocytes (open squares), the human fibroblast cell line, GM01380, which is from normal fetal lung (open diamonds) and normal human lymphocytes (closed diamonds), when cultured in vitro. Cells were cultured in vitro as described in Example 2 for five days in the presence of varying concentrations of CdA from 0 to 125 nanomolar (nM), after which time viable cells were determined. The percentage of viable cells remaining after treatment (ordinate) is plotted against the concentration of CdA utilized (abscissa), on a linear scale. The effect of the presence of deoxycytidine (dCyd, 100 μM) on CdA toxicity toward monocytes (closed squares) is also illustrated. […]
Toxicity towards the monocytes and fibroblasts was determined by a modification of the MTT reduction assay described in Mosmann (1983) J. Immunol. […]
Viable cell numbers were determined using a Dynatech microplate spectrophotometer, measuring absorbance at a wavelength of 570 nanometers (nm), using a reference wavelength of 630 nm. The assay could detect as few as 2000 unactivated monocytes, and the absorbance of MTT formazan at 570 nm was linear with respect to the number of monocytes over a range of about 2.5-20×10^3 cells.

[2] = system: DNA strand breaks in human monocytes; test: DNA damage in monocytes, fluorescent assay for DNA unwinding in alkaline solution; format: cell-based; settings: for additional residual double-stranded DNA (repair) after CdA removal: over the next four hours
Method: FIG. 4 is a graph of the dose- and time-dependence for CdA in inducing DNA strand breaks in monocytes in vitro.
Monocytes were plated as discussed previously, and were then contacted with compositions containing various concentrations of CdA. The amount of DNA damage in monocytes exposed to CdA was determined by the fluorescent assay for DNA unwinding in alkaline solution described by Birnboim and Jevcak (1981) Cancer Res., 41:1889-1892, modified to accommodate lower cell numbers (Thierry et al. (1985) Radiation Res., 102:347-358).
The unwinding rate of DNA in alkaline solution at 15 degrees C. is proportional to the number of DNA strand breaks or alkali-labile sites. The ethidium bromide fluorescence of residual duplex DNA in samples exposed to pH 12.8 for one hour was compared to the fluorescence of a DNA aliquot that was not exposed to alkali. The percent residual double-stranded DNA at 1 hour was taken as a measure of the DNA damage in the sample. The results are illustrated in FIG. 4.
The repair of monocyte DNA damage caused by CdA was compared to the damage caused by gamma irradiation. Monocytes were pre-exposed to 0.1 or 1.0 μM CdA for four hours. At the end of this time, approximately 60 percent residual double-stranded DNA was present in the cells. The CdA was removed, and the amount of residual double-stranded DNA was calculated over the next four hours. Any increase in doublestranded DNA represents ongoing repair mechanisms.

monocytes = test: Monocyte phagocytosis of antibody-coated erythrocytes; format: cell-based, human; settings: three days
Method: FIG. 6 is a graph that illustrates the effects of relatively low doses of CdA used to contact monocytes for a 72 hour time period. Monocyte release of interleukin-6 (IL-6; closed diamonds) and phagocytosis of antibody-coated red blood cells (RBC; closed squares) were examined, as was the viability of the cultured monocytes (open squares). Effects are expressed as a percentage of control values versus the CdA concentration in nanomoles (nM).
The effects of sub-lethal CdA concentrations on monocyte function in vitro was also studied. Cells were contacted and cultured with CdA (5-20 nM) for three days, after which phagocytosis and supernatant IL-6 activity were assayed.
Monocyte phagocytosis was assayed using autologous erythrocyte targets, sensitized with a subagglutinating titer of rabbit anti-human erythrocyte IgG (Cappel, Malvern, Pa.). Monocytes (2×10^5 cells/well) were exposed to sub-toxic concentrations of CdA in microwell plates for 72 hours. Complete medium was replaced with medium containing 10% fetal bovine serum, and a suspension of sensitized erythrocytes (0.25% packed cell volume) was added to the adherent monocyte layers. After incubation for 4 hours at 37 degrees C., the degree of phagocytosis was quantitated by the spectrophotometric method of Jungi (1985) J. Immunol. Meth., 82:141-153. […]

DHL9, wild type = test: Direct comparative cytotoxicity assay (Table II), DHL9 wild type; format: cell-based, human; settings: Homo sapiens, 120 h, read-out: ID50: concentration that produced 50 percent reduction in all numbers after five days
From the text: The two compounds, CdA and CAFdA, were also compared for in vitro activity against another group of human cell lines in a direct comparative assay.
^1 Concentration that produced 50 percent reduction in all numbers
^2 CEM cells are T lymphoblasts; DHL9 cells are lymphoblasts.

[3] = system: delayed-type hypersensitivity (DTH) reaction; test: Delayed-type hypersensitivity to ovalbumin in guinea pigs, different dosages of CdA; format: in vivo, guinea pig; settings: for swelling compared to control saline treated animals: 24 and 48 hours post-challenge, p<0.01
Method: Delayed-type hypersensitivity (DTH) is a cell-mediated immune response that typically takes longer than 12 hours to develop. In the guinea pig, a DTH reaction to an antigen can be established by first immunizing the animal with the antigen in an adjuvant such as Freund's complete adjuvant. Subsequent intradermal injection of the antigen causes no change for at least 10 hours, after which there is a gradual increase in erythema and swelling in response to antigen injection. This response peaks about at about 24 hours after challenge, then gradually subsides.
In another study, the effects of different dosages of CdA on the DTH reaction were examined. Guinea pigs sensitized to ovalbumin were treated with saline (control), dexamethasone (5 mg/kg), and CdA at 1 mg/kg or 0.1 mg/kg. Three days after treatment, the animals were challenged with ovalbumin intradermally. The areas of the skin lesions were measured at 6, 24, and 48 hours after challenge.

Question: Which results are given for `Nc1nc(Cl)nc2c1ncn2[C@H]1C[C@H](O)[C@@H](CO)O1` [CdA, 2-chloro-9,1'-beta-D-2'-deoxyribosyladenine]?
Answer: toxicity on the growth of fibroblast cells [1]: no appreciable toxicity; time to appearance of DNA breaks ([2]; 10 nM CdA): ≤ 2 h; additional residual double-stranded DNA (repair) after CdA removal ([2]; 0.1 μM CdA): 10%; additional residual double-stranded DNA (repair) after CdA removal ([2]; 1.0 μM CdA): no increase; residual double-stranded DNA ([2]; pre-exposed to 0.1 or 1.0 μM CdA for four hours): approximately 60%; cell viability (monocytes; 5-20 nM CdA): unchanged cell viability; phagocytosis of antibody-coated erythrocyte targets (monocytes; 10 and 20 nM CdA): markedly suppressed; IC50 (DHL9, wild type): 80 nM; numerical values of the areas of swelling relative to dexamethasone ([3]; 0.1 and 1.0 mg/kg CdA, substantially the same): slightly less than the value obtained with dexamethasone; swelling compared to control saline treated animals ([3]; CdA 0.1 mg/kg): effective at inhibiting swelling; swelling compared to control saline treated animals ([3]; CdA 1 mg/kg): effective at inhibiting swelling
